Experimental data as given in patent US20260078103A1, “ISOQUINOLONES AS PI3K INHIBITORS” (OnKure, Inc., priority 2022, published 2026).
Where two headings read alike, the source gives them in different places.

What was measured:
Type in all cases: cell-based
[1] = system: phosphorylation of AKT (pAKT) in T47D cells expressing mutant PI3Ka (H1047R); test: In vitro cell pAKT (Ser473) HTRF, T47D cells
Method: (§1) In Vitro Cell pAKT: Determination of IC50 Values for Inhibition of Phosphorylation of AKT (pAKT) in T47D Cells Expressing Mutant PI3Ka (H1047R) Mutation and SKBR3 Cells Express WT PI3Ka.
(§2) T47D or SKBR3 cells were trypsinized, resuspended in culture media and seeded onto assay ready plates. T47D culture media consisted of RPMI, 10% FBS and Insulin (0.2 units/mL). SKBR3 culture media consisted of McCoy's 5a and 10% FBS. Cells were seeded at a density of 5000 cells/well and dispensed in 12.5 μL onto 384 well assay ready plates (Perkin Elmer, 6008238)). Assay ready plates had previously been stamped with 10-point dilutions of compounds of interest, as well as controls. The Echo655 is used to stamp plates at 12.5 nL of compound or DMSO. Cells were grown for 6 hours at 37° Celsius and 5% CO2. After 6 hours, 4 μL of Lysis buffer reagent was added to the plate, which was then centrifuged for 1 minute at 1000 rpm. Then the plate was incubated at room temperature for 30 minutes. After 30 minutes, 4 μL of antibody mix containing Eu Cryptate, d2 Cryptate, and detection buffer, was added to the plate. The plate was centrifuged for 1 minute at 1000 rpm and then incubated overnight at room temperature. The plate was read on an Envision plate reader using the HTRF protocol. The percentage of inhibition of AKT phosphorylation was calculated using the following formula: % Inhibition=100×(pAKTHC−pAKTSample)/(pAKTHC−pAKTLC)), where pAKTHC is obtained from cells treated with 0.1% DMSO only; PAKTLC is obtained from cells treated with 10 uM Alpelisib. The IC50 (concentration achieving 50% inhibition of pAKT) is calculated by fitting the Curve using XIfit (v5.3.1.3), equation 201: Y=Bottom+(Top−Bottom)/(1+10^((LogIC50−X)*HillSlope)).

[2] = system: SKBR3 cells express WT PI3Ka; test: In vitro cell proliferation, SKBR3 cells (CellTiter-Glo); conditions: inhibition of proliferation
Method: (§3) In Vitro Cell Proliferation: Determination of EC50 Values for Inhibition of Proliferation in T47D Cells Expressing Mutant PI3Ka (H1047R) Mutation and SKBR3 Cells Express WT PI3Ka.
(§4) T47D or SKBR3 cells were trypsinized, resuspended in culture media and seeded onto assay ready plates. T47D culture media consisted of RPMI, 10% FBS and Insulin (0.2 units/mL). SKBR3 culture media consisted of McCoys 5a and 10% FBS. Cells were seeded at a density of 1,500 cells/well and dispensed in 50 μl onto 384 well assay ready plates (Corning, 89089-790). Assay ready plates had previously been stamped with 10-point dilutions of compounds of interest, as well as controls. The Echo655 is used to stamp plates at 40 nL of compound or DMSO. Cells were grown for 72 hours at 37° Celsius and 5% CO2. After 72 hours, cells were equilibrated at room temperature for 15 minutes. 30 μL of CellTiter-Glo reagent is added to the plate, which is then shaken for 30 minutes at temperature at 300-500 rpm. Cells are then read on an Envision plate reader. The percentage of inhibition of proliferation was calculated using the following formula: % Inhibition=100×(LumD−Lumsample)/(LumD−Lumlnh), where D is obtained from cells treated with 0.1% DMSO only; lnh is obtained from cells treated with 10 uM Alpelisib. The effective concentration achieving 50% inhibition of proliferation (EC50) is calculated by fitting the Curve using Xlfit (v5.3.1.3), equation 201: Y=Bottom+(Top−Bottom)/(1+10^((LogEC50−X)*HillSlope)).

[3] = system: T47D cells expressing mutant PI3Ka (H1047R); test: In vitro cell proliferation, T47D cells (CellTiter-Glo); conditions: inhibition of proliferation, read-out: Avg T-47D EC50
Method: as §3, §4

[4] = system: phosphorylation of AKT (pAKT) in SKBR3 cells express WT PI3Ka; test: In vitro cell pAKT (Ser473) HTRF, SKBR3 cells; conditions: cellular pAKT
Method: as §1, §2

[5] = cellular pAKT, T47D cells, mutant PI3Ka (H1047R), 6 hours; read-out: Avg T-47D IC50

IC50 [1, 5]	EC50 ([2]; 72 hours)	EC50 ([3]; 72 hours)	IC50 ([4]; 6 hours)	EC50 ([2]; Homo sapiens, SK-BR-3, 72 h)	IC50 ([4]; Homo sapiens, SK-BR-3, 6 h)	EC50 ([3]; Homo sapiens, T47D, 72 h)	SMILES	IC50 ([1]; read-out: Avg T-47D IC50; cellular pAKT, T47D cells, mutant PI3Ka (H1047R), 6 hours)
0.001 to 0.5 µM	> 15 µM	0.5 to 2 µM	> 15 µM	–	–	–	Cc1cc(C(C)Nc2ccccc2C(=O)O)c2cc(N3CCC(c4ccccc4)C3)n(C)c(=O)c2c1 (mixture of isomers) [Example 60]	–
0.5 to 2 µM	> 15 µM	0.5 to 2 µM	> 15 µM	–	–	–	Cc1cc(C(C)Nc2ccccc2C(=O)O)c2cc(N3CC4CN(CC(F)(F)F)CC4C3)n(C)c(=O)c2c1 (mixture of isomers) [Example 90]	–
0.001 to 0.5 µM	2 to 15 µM	0.001 to 0.5 µM	> 15 µM	–	–	–	Cc1cc(C(C)Nc2ccccc2C(=O)O)c2cc(N3CCN(C(C)C(F)(F)F)CC3)n(C)c(=O)c2c1 (mixture of isomers) [Example 271]	–
0.5 to 2 µM	–	0.001 to 0.5 µM	2 to 15 µM	2 to 15 µM	–	–	Cc1cc(C(C)Nc2ccc(Cl)nc2C(=O)O)c2cc(N3CCC(C)(C)CC3)n(C)c(=O)c2c1 (single isomer, unassigned) [Example 3, 6-chloro-3-((1-(3-(4,4-dimethylpiperidin-1-yl)-2,7-dimethyl-1-oxo-1,2-dihydroisoquinolin-5-yl)ethyl)amino)picolinic acid]	–
2 to 15 µM	2 to 15 µM	2 to 15 µM	> 15 µM	–	–	–	Cc1cc(C(C)Nc2ccc(Cl)nc2C(=O)O)c2cc(N3CCC(C)(C)CC3)n(C)c(=O)c2c1 (single isomer, unassigned) [Example 4, 6-chloro-3-((1-(3-(4,4-dimethylpiperidin-1-yl)-2,7-dimethyl-1-oxo-1,2-dihydroisoquinolin-5-yl)ethyl)amino)picolinic acid]	–
2 to 15 µM	> 15 µM	2 to 15 µM	> 15 µM	–	–	–	Cc1cc(C(C)Nc2ccccc2C(=O)O)c2cc(C3=CCC(C)(C)CC3)n(C)c(=O)c2c1 (single isomer, unassigned) [Example 5, 2-((1-(3-(4,4-dimethylcyclohex-1-en-1-yl)-2,7-dimethyl-1-oxo-1,2-dihydroisoquinolin-5-yl)ethyl)amino)benzoic acid]	–
0.001 to 0.5 µM	2 to 15 µM	0.001 to 0.5 µM	2 to 15 µM	–	–	–	Cc1cc(C(C)Nc2ccccc2C(=O)O)c2cc(C3=CCC(C)(C)CC3)n(C)c(=O)c2c1 (single isomer, unassigned) [Example 6, 2-((1-(3-(4,4-dimethylcyclohex-1-en-1-yl)-2,7-dimethyl-1-oxo-1,2-dihydroisoquinolin-5-yl)ethyl)amino)benzoic acid]	–
2 to 15 µM	> 15 µM	2 to 15 µM	> 15 µM	–	–	–	Cc1cc(C(C)Nc2ccccc2C(=O)O)c2cc(N3CCN(CC(F)(F)F)CC3)n(C)c(=O)c2c1 (single isomer, unassigned) [Example 9, 2-((1-(2,7-dimethyl-1-oxo-3-(4-(2,2,2-trifluoroethyl)piperazin-1-yl)-1,2-dihydroisoquinolin-5-yl)ethyl)amino)benzoic acid]	–
> 15 µM	–	2 to 15 µM	> 15 µM	2 to 15 µM	–	–	Cc1cc(C(C)Nc2ccccc2C(=O)O)c2cc(N3CC4CCC(C4)C3)n(C)c(=O)c2c1 (single isomer, unassigned) [Example 10, 2-((1-(3-(3-azabicyclo[3.2.1]octan-3-yl)-2,7-dimethyl-1-oxo-1,2-dihydroisoquinolin-5-yl)ethyl)amino)benzoic acid]	–
0.001 to 0.5 µM	2 to 15 µM	0.001 to 0.5 µM	2 to 15 µM	–	–	–	Cc1cc(C(C)Nc2ccccc2C(=O)O)c2cc(N3CC4CCC(C4)C3)n(C)c(=O)c2c1 (single isomer, unassigned) [Example 11, 2-((1-(3-(3-azabicyclo[3.2.1]octan-3-yl)-2,7-dimethyl-1-oxo-1,2-dihydroisoquinolin-5-yl)ethyl)amino)benzoic acid]	–
> 15 µM	–	> 15 µM	–	> 15 µM	> 15 µM	–	Cc1cc(C(C)Nc2ccccc2C(=O)O)c2cc(N3CCN(C)CC3)n(C)c(=O)c2c1 (single isomer, unassigned) [Example 12, 2-((1-(2,7-dimethyl-3-(4-methylpiperazin-1-yl)-1-oxo-1,2-dihydroisoquinolin-5-yl)ethyl)amino)benzoic acid]	–
0.5 to 2 µM	> 15 µM	0.5 to 2 µM	> 15 µM	–	–	–	Cc1cc(C(C)Nc2ccccc2C(=O)O)c2cc(N3CCN(C)CC3)n(C)c(=O)c2c1 (single isomer, unassigned) [Example 13, 2-((1-(2,7-dimethyl-3-(4-methylpiperazin-1-yl)-1-oxo-1,2-dihydroisoquinolin-5-yl)ethyl)amino)benzoic acid]	–
> 15 µM	–	2 to 15 µM	–	2 to 15 µM	> 15 µM	–	Cc1cc(C(C)Nc2ccccc2C(=O)O)c2cc(N3Cc4cccnc4C3)n(C)c(=O)c2c1 (single isomer, unassigned) [Example 18, 2-((1-(3-(5,7-dihydro-6H-pyrrolo[3,4-b]pyridin-6-yl)-2,7-dimethyl-1-oxo-1,2-dihydroisoquinolin-5-yl)ethyl)amino)benzoic acid]	–
–	> 15 µM	2 to 15 µM	–	–	–	–	Cc1cc(C(C)Nc2ccccc2C(=O)O)c2cc(N3Cc4ccc(F)cc4C3)n(C)c(=O)c2c1 (single isomer, unassigned) [Example 50]	–
–	> 15 µM	2 to 15 µM	–	–	–	–	Cc1cc(C(C)Nc2ccccc2C(=O)O)c2cc(C3CCC(C)(C)CC3)n(C)c(=O)c2c1 (single isomer, unassigned) [Example 51]	–
–	2 to 15 µM	0.001 to 0.5 µM	–	–	–	–	Cc1cc(C(C)Nc2ccccc2C(=O)O)c2cc(C3CCC(C)(C)CC3)n(C)c(=O)c2c1 (single isomer, unassigned) [Example 52]	–
–	–	–	–	> 15 µM	–	2 to 15 µM	Cc1cc(C(C)Nc2ccccc2C(=O)O)c2cc(N3CC(c4ccccc4)C3)n(C)c(=O)c2c1 (centres unmarked) [Example 53]	–
–	–	–	–	> 15 µM	–	2 to 15 µM	CC(=O)N1CCN(c2cc3c(C(C)Nc4ccccc4C(=O)O)cc(C)cc3c(=O)n2C)CC1 (centres unmarked) [Example 54]	–

SMILES	IC50 [1, 5]	EC50 ([2]; 72 hours)	EC50 ([3]; 72 hours)	IC50 ([4]; 6 hours)	EC50 ([2]; Homo sapiens, SK-BR-3, 72 h)	IC50 ([4]; Homo sapiens, SK-BR-3, 6 h)	EC50 ([3]; Homo sapiens, T47D, 72 h)	IC50 ([1]; read-out: Avg T-47D IC50; cellular pAKT, T47D cells, mutant PI3Ka (H1047R), 6 hours)
Cc1cc(C(C)Nc2ccccc2C(=O)O)c2cc(N3CCC(C)(C)CC3)n(C)c(=O)c2c1 (single isomer, unassigned) [Example 2, 2-((1-(3-(4,4-dimethylpiperidin-1-yl)-2,7-dimethyl-1-oxo-1,2-dihydroisoquinolin-5-yl)ethyl)amino)benzoic acid]	–	> 15 µM	2 to 15 µM	> 15 µM	–	–	–	> 15 µM
Cc1ccc(N[C@H](C)c2cc(F)cc3c(=O)n(C)c(C4CC4C4CC4)cc23)c(C(=O)O)n1 (stereo in doubt) [Example 46, -(((R)-1-(3-(trans-[1,1′-bi(cyclopropan)]-2-yl)-7-fluoro-2-methyl-1-oxo-1,2-dihydroisoquinolin-5-yl)ethyl)amino)-6-methylpicolinic acid]	0.001 to 0.5 µM	–	0.5 to 2 µM	> 15 µM	–	–	–	–
Cc1cc(C(C)Nc2ccccc2C(=O)O)c2cc(N3C[C@@H]4[C@@H](C#N)[C@@H]4C3)n(C)c(=O)c2c1 (stereo partly drawn) [Example 16, 2-((1-(3-((1R,5S,6r)-6-cyano-3-azabicyclo[3.1.0]hexan-3-yl)-2,7-dimethyl-1-oxo-1,2-dihydroisoquinolin-5-yl)ethyl)amino)benzoic acid]	> 15 µM	–	2 to 15 µM	–	–	–	–	–
